Assay results reported in patent publication US20170190671A1, “BIS(ARYL)CATECHOL DERIVATIVES AS HERBICIDES” (E I DU PONT DE NEMOURS AND COMPANY, priority 2014, published 2017).

How the values were obtained:
[1] = test system: Italian ryegrass (Lolium multiflorum); test: Test C postemergence; assay type: in vivo; conditions: Lolium multiflorum, post-emergence, 336 h, Postemergence, scale 0 to 100, read-out: Plant response rating, Ryegrass, Italian
Method in brief: (§1)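 Seeds in loam-sand soil were treated preemergence, and plants at the 1- to 4-leaf stage (2-18 cm) in peat-based medium were sprayed postemergence, with test chemicals in a non-phytotoxic solvent containing surfactant. After 13-15 days in a greenhouse, response was rated visually against controls from 0 (no effect) to 100 (complete control).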

[2] = test system: barnyardgrass (Echinochloa crus-galli); test: Test C postemergence; assay type: in vivo; conditions: Echinochloa crus-galli, post-emergence, Postemergence, scale 0 to 100, read-out: Plant response rating, Barnyardgrass
Method in brief: as §1

[3] = test system: corn (Zea mays); test: Test C postemergence; assay type: in vivo; conditions: Zea mays, post-emergence, 336 h, Postemergence, scale 0 to 100
Method in brief: as §1

[4] = test system: galium (catchweed bedstraw, Galium aparine); test: Test C postemergence; assay type: in vivo; conditions: Galium, post-emergence, 336 h, Postemergence, scale 0 to 100, read-out: Plant response rating, Galium
Method in brief: as §1

[5] = test system: johnsongrass (Sorghum halepense); test: Test C postemergence; assay type: in vivo; conditions: Sorghum halepense, post-emergence, 336 h, Postemergence, scale 0 to 100, read-out: Plant response rating, Johnsongrass
Method in brief: as §1

[6] = test system: kochia (Kochia scoparia); test: Test C postemergence; assay type: in vivo; conditions: Bassia scoparia, post-emergence, Postemergence, scale 0 to 100, read-out: Plant response rating, Kochia
Method in brief: as §1

[7] = test system: large (Lg) crabgrass (Digitaria sanguinalis); test: Test C postemergence; assay type: in vivo; conditions: Digitaria sanguinalis, post-emergence, 336 h, Postemergence, scale 0 to 100, read-out: Plant response rating, Crabgrass, Large
Method in brief: as §1

[8] = test system: morningglory (Ipomoea coccinea); test: Test C postemergence; assay type: in vivo; conditions: Ipomoea, post-emergence, 336 h, Postemergence, scale 0 to 100, read-out: Plant response rating, Morningglory
Method in brief: as §1

[9] = test system: oilseed rape (Brassica napus); test: Test C postemergence; assay type: in vivo; conditions: Brassica napus, post-emergence, Postemergence, scale 0 to 100, read-out: Plant response rating, Oilseed Rape
Method in brief: as §1

[10] = test system: pigweed (Amaranthus retroflexus); test: Test C postemergence; assay type: in vivo; conditions: Amaranthus retroflexus, post-emergence, 336 h, Postemergence, scale 0 to 100, read-out: Plant response rating, Pigweed
Method in brief: as §1

[11] = test system: ragweed (common ragweed, Ambrosia elatior); test: Test C postemergence; assay type: in vivo; conditions: Ambrosia artemisiifolia, post-emergence, 336 h, Postemergence, scale 0 to 100, read-out: Plant response rating, Ragweed
Method in brief: as §1

[12] = test system: soybean (Glycine max); test: Test C postemergence; assay type: in vivo; conditions: Glycine max, post-emergence, Postemergence, scale 0 to 100, read-out: Plant response rating, Soybean
Method in brief: as §1

[13] = test system: waterhemp (common waterhemp, Amaranthus rudis); test: Test C postemergence; assay type: in vivo; conditions: Amaranthus tuberculatus, post-emergence, Postemergence, scale 0 to 100, read-out: Plant response rating, Waterhemp
Method in brief: as §1

[14] = test system: wild oat (Avena fatua); test: Test C postemergence; assay type: in vivo; conditions: Avena fatua, post-emergence, Postemergence, scale 0 to 100, read-out: Plant response rating, Oat, Wild
Method in brief: as §1

[15] = test system: winter wheat (Triticum aestivum); test: Test C postemergence; assay type: in vivo; conditions: Triticum aestivum, post-emergence, 336 h, Postemergence, scale 0 to 100, read-out: Plant response rating, Wheat
Method in brief: as §1

N#Cc1cccc(Oc2ncc(Cl)cn2)c1Oc1ccc(Cl)cc1 [Compound 36]
pest or weed control at 31 g/ha ([1]; 31 g ai/ha): 5% | pest or weed control at 62 g/ha ([1]; 62 g ai/ha): 10% | pest or weed control at 125 g/ha ([1]; 125 g ai/ha): 30% | pest or weed control at 16 g/ha ([2]; 16 g ai/ha): 10% | pest or weed control at 31 g/ha ([2]; 31 g ai/ha): 10% | pest or weed control at 62 g/ha ([2]; 62 g ai/ha): 15% | pest or weed control at 125 g/ha ([2]; 125 g ai/ha): 20% | Corn plant response rating (crop injury, 0 = no effect, 100 = complete kill) at 16 g/ha ([3]; 16 g ai/ha): 10% | Corn plant response rating (crop injury, 0 = no effect, 100 = complete kill) at 31 g/ha ([3]; 31 g ai/ha): 15% | Corn plant response rating (crop injury, 0 = no effect, 100 = complete kill) at 62 g/ha ([3]; 62 g ai/ha): 20% | Corn plant response rating (crop injury, 0 = no effect, 100 = complete kill) at 125 g/ha ([3]; 125 g ai/ha): 20% | pest or weed control at 16 g/ha ([4]; 16 g ai/ha): 80% | pest or weed control at 31 g/ha ([4]; 31 g ai/ha): 80% | pest or weed control at 62 g/ha ([4]; 62 g ai/ha): 95% | pest or weed control at 125 g/ha ([4]; 125 g ai/ha): 95% | pest or weed control at 16 g/ha ([5]; 16 g ai/ha): 20% | pest or weed control at 31 g/ha ([5]; 31 g ai/ha): 30% | pest or weed control at 62 g/ha ([5]; 62 g ai/ha): 35% | pest or weed control at 125 g/ha ([5]; 125 g ai/ha): 35% | pest or weed control at 16 g/ha ([6]; 16 g ai/ha): 90% | pest or weed control at 31 g/ha ([6]; 31 g ai/ha): 95% | pest or weed control at 62 g/ha ([6]; 62 g ai/ha): 95% | pest or weed control at 125 g/ha ([6]; 125 g ai/ha): 100% | pest or weed control at 16 g/ha ([7]; 16 g ai/ha): 5% | pest or weed control at 31 g/ha ([7]; 31 g ai/ha): 10% | pest or weed control at 62 g/ha ([7]; 62 g ai/ha): 10% | pest or weed control at 125 g/ha ([7]; 125 g ai/ha): 20% | pest or weed control at 31 g/ha ([8]; 31 g ai/ha): 60% | pest or weed control at 62 g/ha ([8]; 62 g ai/ha): 65% | pest or weed control at 125 g/ha ([8]; 125 g ai/ha): 70% | plant injury at 31 g/ha ([9]; 31 g ai/ha): 85% | plant injury at 62 g/ha ([9]; 62 g ai/ha): 90% | plant injury at 125 g/ha ([9]; 125 g ai/ha): 98% | pest or weed control at 31 g/ha ([10]; 31 g ai/ha): 90% | pest or weed control at 62 g/ha ([10]; 62 g ai/ha): 98% | pest or weed control at 125 g/ha ([10]; 125 g ai/ha): 100% | pest or weed control at 31 g/ha ([11]; 31 g ai/ha): 45% | pest or weed control at 62 g/ha ([11]; 62 g ai/ha): 40% | pest or weed control at 125 g/ha ([11]; 125 g ai/ha): 75% | plant injury at 31 g/ha ([12]; 31 g ai/ha): 25% | plant injury at 62 g/ha ([12]; 62 g ai/ha): 50% | plant injury at 125 g/ha ([12]; 125 g ai/ha): 45% | pest or weed control at 31 g/ha ([13]; 31 g ai/ha): 90% | pest or weed control at 62 g/ha ([13]; 62 g ai/ha): 100% | pest or weed control at 125 g/ha ([13]; 125 g ai/ha): 98% | pest or weed control at 31 g/ha ([14]; 31 g ai/ha): 30% | pest or weed control at 62 g/ha ([14]; 62 g ai/ha): 20% | pest or weed control at 125 g/ha ([14]; 125 g ai/ha): 35% | plant injury at 31 g/ha ([15]; 31 g ai/ha): 0% | plant injury at 62 g/ha ([15]; 62 g ai/ha): 0% | plant injury at 125 g/ha ([15]; 125 g ai/ha): 5% | melting point: 172 to 175 °C
